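Growth conditions: 96-well plates. Treatment: test compound, 48 hours, 5 concentrations. Analysis: linear interpolation between bracketing concentrations; unreached endpoints set to highest concentration. GI50: concentration for 50% inhibition of growth.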 Calls of active or inactive are those of the source. No stated cut-off is given here; in the data, active = GI50 up to about 1.1 µM and inactive = higher.
What was measured:
Assay in all cases: inhibition of tumour cell growth, NCI panel, 48 h
786-0 = test system: 786-0
A498 = test system: A498
A549 = test system: A549
ACHN = test system: ACHN
BT-549 = test system: BT-549
CAKI-1 = test system: CAKI-1
CCRF-CEM = test system: CCRF-CEM
COLO 205 = test system: COLO 205
DU-145 = test system: DU-145
EKVX = test system: EKVX
HCT-116 = test system: HCT-116
HCT-15 = test system: HCT-15
HL-60 = test system: HL-60
HOP-62 = test system: HOP-62
HOP-92 = test system: HOP-92
HT-29 = test system: HT-29
Hs-578T = test system: Hs-578T
IGROV-1 = test system: IGROV-1
K562 = test system: K562
KM12 = test system: KM12
LOX IMVI = test system: LOX IMVI
M14 = test system: M14
MCF7 = test system: MCF7
MDA-MB-231 = test system: MDA-MB-231
MDA-MB-435 = test system: MDA-MB-435
MDA-N = test system: MDA-N
MOLT-4 = test system: MOLT-4
Malme-3M = test system: Malme-3M
NCI-H226 = test system: NCI-H226
NCI-H23 = test system: NCI-H23
NCI-H460 = test system: NCI-H460
NCI-H522 = test system: NCI-H522
NCI/ADR-RES = test system: NCI/ADR-RES
OVCAR-3 = test system: OVCAR-3
OVCAR-4 = test system: OVCAR-4
OVCAR-5 = test system: OVCAR-5
OVCAR-8 = test system: OVCAR-8
PC-3 = test system: PC-3
RPMI-8226 = test system: RPMI-8226
RXF 393 = test system: RXF 393
SF-268 = test system: SF-268
SF-295 = test system: SF-295
SF-539 = test system: SF-539
SK-MEL-28 = test system: SK-MEL-28
SK-MEL-2 = test system: SK-MEL-2
SK-MEL-5 = test system: SK-MEL-5
SK-OV-3 = test system: SK-OV-3
SN12C = test system: SN12C
SNB-19 = test system: SNB-19
SNB-75 = test system: SNB-75
SR = test system: SR
SW-620 = test system: SW-620
T47D = test system: T47D
TK-10 = test system: TK-10
U-251 = test system: U-251
UACC-257 = test system: UACC-257
UO-31 = test system: UO-31
HCC 2998 = test system: HCC 2998
UACC-62 = test system: UACC-62

Structure (SMILES): CN(C)c1ccc(/C=N/c2ccc(-c3nc4ccccc4[nH]3)cc2)cc1
- GI50 (786-0): 74.8 µM (inactive)
- GI50 (A498): 69.5 µM (inactive)
- GI50 (A549): > 100 µM (inactive)
- GI50 (ACHN): 59.3 µM (inactive)
- GI50 (BT-549): 19.3 µM (inactive)
- GI50 (CAKI-1): > 100 µM (inactive)
- GI50 (CCRF-CEM): 37.7 µM (inactive)
- GI50 (COLO 205): 60.8 µM (inactive)
- GI50 (DU-145): 65.8 µM (inactive)
- GI50 (EKVX): > 100 µM (inactive)
- GI50 (HCT-116): 43.6 µM (inactive)
- GI50 (HCT-15): 24.6 µM
- GI50 (HL-60): 24.7 µM (inactive)
- GI50 (HOP-62): > 100 µM (inactive)
- GI50 (HOP-92): > 100 µM (inactive)
- GI50 (HT-29): 39.5 µM (inactive)
- GI50 (Hs-578T): 63 µM (inactive)
- GI50 (IGROV-1): 47.1 µM (inactive)
- GI50 (K562): 35 µM (inactive)
- GI50 (KM12): 32.5 µM (inactive)
- GI50 (LOX IMVI): 51.5 µM (inactive)
- GI50 (M14): > 100 µM (inactive)
- GI50 (MCF7): 46.9 µM (inactive)
- GI50 (MDA-MB-231): 32.8 µM (inactive)
- GI50 (MDA-MB-435): > 100 µM (inactive)
- GI50 (MDA-N): > 100 µM (inactive)
- GI50 (MOLT-4): 25.7 µM (inactive)
- GI50 (Malme-3M): 24.3 µM (inactive)
- GI50 (NCI-H226): > 100 µM (inactive)
- GI50 (NCI-H23): > 100 µM (inactive)
- GI50 (NCI-H460): 51.8 µM (inactive)
- GI50 (NCI-H522): 56 µM (inactive)
- GI50 (NCI/ADR-RES): 1.09 µM (active)
- GI50 (OVCAR-3): 71.1 µM (inactive)
- GI50 (OVCAR-4): 35.9 µM (inactive)
- GI50 (OVCAR-5): > 100 µM (inactive)
- GI50 (OVCAR-8): > 100 µM (inactive)
- GI50 (PC-3): 53.6 µM (inactive)
- GI50 (RPMI-8226): 36.1 µM (inactive)
- GI50 (RXF 393): 24.2 µM (inactive)
- GI50 (SF-268): 60 µM (inactive)
- GI50 (SF-295): 46.6 µM (inactive)
- GI50 (SF-539): 90.4 µM (inactive)
- GI50 (SK-MEL-28): > 100 µM (inactive)
- GI50 (SK-MEL-2): > 100 µM (inactive)
- GI50 (SK-MEL-5): 56.9 µM (inactive)
- GI50 (SK-OV-3): > 100 µM (inactive)
- GI50 (SN12C): 40.6 µM (inactive)
- GI50 (SNB-19): 40 µM (inactive)
- GI50 (SNB-75): 33.7 µM (inactive)
- GI50 (SR): 12.9 µM (inactive)
- GI50 (SW-620): 32.4 µM (inactive)
- GI50 (T47D): 31.3 µM (inactive)
- GI50 (TK-10): > 100 µM (inactive)
- GI50 (U-251): 39.2 µM (inactive)
- GI50 (UACC-257): > 100 µM (inactive)
- GI50 (UO-31): 56.4 µM (inactive)

Structure (SMILES): NC(=O)c1ncn2c(=O)n(CCl)nnc12
- GI50 (786-0): 85.9 µM (inactive)
- GI50 (A498): > 100 µM (inactive)
- GI50 (A549): > 100 µM (inactive)
- GI50 (ACHN): 47.9 µM (inactive)
- GI50 (BT-549): > 100 µM (inactive)
- GI50 (CAKI-1): > 100 µM (inactive)
- GI50 (CCRF-CEM): 22.4 µM (inactive)
- GI50 (COLO 205): 50.2 µM (inactive)
- GI50 (DU-145): > 100 µM (inactive)
- GI50 (EKVX): > 100 µM (inactive)
- GI50 (HCC 2998): > 100 µM (inactive)
- GI50 (HCT-116): 28.2 µM (inactive)
- GI50 (HCT-15): 41.4 µM
- GI50 (HOP-62): > 100 µM (inactive)
- GI50 (HOP-92): > 100 µM (inactive)
- GI50 (HT-29): 43.2 µM (inactive)
- GI50 (Hs-578T): > 100 µM (inactive)
- GI50 (IGROV-1): > 100 µM (inactive)
- GI50 (K562): 72.6 µM (inactive)
- GI50 (KM12): > 100 µM (inactive)
- GI50 (LOX IMVI): 15.8 µM (inactive)
- GI50 (M14): > 100 µM (inactive)
- GI50 (MCF7): 49.3 µM (inactive)
- GI50 (MDA-MB-231): > 100 µM (inactive)
- GI50 (MDA-MB-435): > 100 µM (inactive)
- GI50 (MDA-N): > 100 µM (inactive)
- GI50 (MOLT-4): > 100 µM (inactive)
- GI50 (Malme-3M): > 100 µM (inactive)
- GI50 (NCI-H226): > 100 µM (inactive)
- GI50 (NCI-H23): > 100 µM (inactive)
- GI50 (NCI-H460): 51.6 µM (inactive)
- GI50 (NCI-H522): 96.8 µM (inactive)
- GI50 (NCI/ADR-RES): 48.9 µM (inactive)
- GI50 (OVCAR-3): > 100 µM (inactive)
- GI50 (OVCAR-4): > 100 µM (inactive)
- GI50 (OVCAR-5): > 100 µM (inactive)
- GI50 (OVCAR-8): 97.1 µM (inactive)
- GI50 (PC-3): > 100 µM (inactive)
- GI50 (RPMI-8226): 24.3 µM (inactive)
- GI50 (RXF 393): > 100 µM (inactive)
- GI50 (SF-268): > 100 µM (inactive)
- GI50 (SF-295): > 100 µM (inactive)
- GI50 (SF-539): 72.8 µM (inactive)
- GI50 (SK-MEL-28): > 100 µM (inactive)
- GI50 (SK-MEL-2): > 100 µM (inactive)
- GI50 (SK-MEL-5): > 100 µM (inactive)
- GI50 (SK-OV-3): 83 µM (inactive)
- GI50 (SN12C): > 100 µM (inactive)
- GI50 (SNB-19): > 100 µM (inactive)
- GI50 (SNB-75): > 100 µM (inactive)
- GI50 (SR): 15.4 µM (inactive)
- GI50 (SW-620): 42 µM (inactive)
- GI50 (T47D): 94.2 µM (inactive)
- GI50 (TK-10): 63.1 µM (inactive)
- GI50 (U-251): > 100 µM (inactive)
- GI50 (UACC-257): > 100 µM (inactive)
- GI50 (UACC-62): 76 µM (inactive)
- GI50 (UO-31): > 100 µM (inactive)
